Assay results taken from patent US9932570B2 (priority 2015, dated 2018).
Non-standard residues stand in square brackets, D forms with d. Residues, ends and D or L forms follow the SMILES beside them. *: point of attachment. AFC = O=c1cc(C(F)(F)F)c2ccc(N*)cc2o1; AMC = Cc1cc(=O)oc2cc(N*)ccc12

Test system: plasma proteases

| Structure (SMILES) | Cleavage / fluorescence in plasma in the absence of LF | Specificity for LF | Hydrolysis in plasma without LF |
| --- | --- | --- | --- |
| CC(=O)N[C@@H](CCCNC(=N)N)C(=O)N[C@@H](CCCNC(=N)N)C(=O)N[C@@H](CCCCN)C(=O)N[C@@H](CCCCN)C(=O)N[C@H](C(=O)N[C@@H](Cc1ccc(O)cc1)C(=O)N1CCC[C@H]1C(=O)Nc1ccc2c(C)cc(=O)oc2c1)C(C)C [LBL 10079] (Ac-RRKKVYP-{AMC}) | dramatic increase in fluorescence | non-specifically cleaved by plasma proteases | – |
| CC(=O)N[C@@H](CCCNC(=N)N)C(=O)N[C@H](CCCNC(=N)N)C(=O)N[C@H](CCCCN)C(=O)N[C@H](CCCCN)C(=O)N[C@H](C(=O)N[C@@H](Cc1ccc(O)cc1)C(=O)N1CCC[C@H]1C(=O)Nc1ccc2c(C(F)(F)F)cc(=O)oc2c1)C(C)C [LBL 10108] (Ac-R[dR][dK][dK]VYP-{AFC}) | neither peptide was cleaved | – | – |
| CC(=O)N[C@@H](CCCNC(=N)N)C(=O)N[C@H](CCCNC(=N)N)C(=O)N[C@H](CCCCN)C(=O)N[C@H](CCCCN)C(=O)N[C@H](C(=O)N[C@@H](Cc1ccc(O)cc1)C(=O)N1CCC[C@H]1C(=O)Nc1ccc2c(C)cc(=O)oc2c1)C(C)C [LBL 10081] (Ac-R[dR][dK][dK]VYP-{AMC}) | minimal increase in hydrolysis | specific for LF | minimal increase in hydrolysis |
| CC(=O)N[C@H](CCCNC(=N)N)C(=O)N[C@H](CCCNC(=N)N)C(=O)N[C@H](CCCCN)C(=O)N[C@H](CCCCN)C(=O)N[C@H](C(=O)N[C@@H](Cc1ccc(O)cc1)C(=O)N1CCC[C@H]1C(=O)Nc1ccc2c(C)cc(=O)oc2c1)C(C)C [LBL 10097] (Ac-[dR][dR][dK][dK]VYP-{AMC}) | minimal increase in hydrolysis | specific for LF | minimal increase in hydrolysis |
